Key:
[1] = Cell Titer-fluor cell activity assay in HCV-1b replicon cells (CC50); type: cell-based
Procedure: (§1) The EC50 and CC50 values of anti-HCV compounds were determined by HCV genotype 1a (HCV-1a) and 1B (HCV-1b) stable transfer replication (replicon) cells. The source of genotype 1a replicon is H77 clones containing K1691R, K2040R and S2204I adaptive mutations. The source of genotype 1b replicon is Con1 clones containing E1202G, T1280I and K1846T adaptive mutations.
(§2) HCV Replicon Cell Lines: HCV-1a and HCV-1b Cells
(§3) The compound powder was dissolved in 100% DMSO. Then the compound was diluted 5 times with 6 points, and added into the cell plate with Echo liquid handler. Ensure the final concentration of DMSO was 0.5%. Each compound was tested in double holes. Maximum initial concentration was 100, 10 or 1 nM, 5 times dilution, 6 points.
(§4) b) Cell Culture (HCV-1a or HCV-1b Replicon Cell):
(§5) 1) absorbing the culture supernatant of the cell culture and washing the cells with 10 mL PBS.
(§6) 2) adding preheated pancreatin to the washed cell culture flasks, rotating culture bottle to make the bottom of the culture bottle uniformly covered by pancreatin, then placed into 37° C., 5% CO2 incubator to digest.
(§7) 3) suspending cells in each T150 culture flask with 10-15 mL culture medium, absorbing 0.1 mL liquid and diluting 2 times by trypan blue solution as counted.
(§8) 4) diluting cells to 8×10^4/mL with the culture medium, adding the diluted cells into the compound-containing 96-well plate (Greiner, Cat.#655090) (100 μL/well, 8000 cells/well) with automatic liquid separator (Thermo Scientific). Then place into a 37° C., 5% CO2 incubator for 3 days. Cell control well: no compound, only containing 0.5% DMSO.
5) adding chemiluminescent substrate Cell Titer-fluor to the cell well, after incubation for 30 minutes, detecting the signal by chemiluminescence detection system Envison (Ex at 405 nm and read at 515 nm). The effect of the compounds on the activity of HCV replicon cells was analyzed according to the luminescence data, which was used to calculate the CC50 values.
(§9) The EC50 or CC50 values were obtained by nonlinear fitting analysis on inhibition percentage (inh %) data with GraphPad Prism software.

[2] = tested on: HCV genotype 1a (HCV-1a) replicon cells; experiment: HCV genotype 1a replicon luciferase assay (EC50); type: cell-based, hepatitis C virus genotype 1a (H77 clone); settings: 3 days, luciferase (Bright-Glo)
Procedure: as §1
(§10) HCV 1a (HCV-1a) and 1b (HCV-1b) gene subtype replicon system contains the related HCV gene subtype non structural protein gene, G418 resistance gene NEO and luciferase gene, which results in that HCV related protein and luciferase can be stably expressed in cells. By detecting the level of expression of luciferase gene, the level of HCV replication can be determined. Therefore, the system is used as a model for screening the activity of anti-HCV compound in vitro.
as §2, §3, §4, §5, §6, §7, §8
(§11) 6) then adding luciferase luminescence substrate Bright-Glo, after incubation for 5 minutes, detecting the luciferase activity by chemical luminescence detection system Envison (wavelength>700 nm); analyzing the anti-HCV inhibitory activity of the compounds according to luciferase data, which was used to calculate EC50 values.
as §9

[3] = tested on: HCV genotype 1b (HCV-1b) replicon cells; experiment: HCV genotype 1b replicon luciferase assay (EC50); type: cell-based, hepatitis C virus genotype 1b (Con1 clone); settings: 3 days, luciferase (Bright-Glo)
Procedure: as §1, §10, §2, §3, §4, §5, §6, §7, §8, §11, §9

Compound | CC50 at 3 days [1] | EC50 [2] | EC50 ([3]; Hepatitis C virus, 72 h) | EC50 [3] | EC50 ([2]; Hepatitis C virus, 72 h)
COC(=O)N[C@H](C(=O)N1CCC[C@H]1c1ncc(-c2ccc(-c3ccc(-c4cnc([C@H]5C6CCC(C6)[C@@H]5C(=O)NC(C)c5cccnc5)[nH]4)cc3)cc2)[nH]1)C(C)C (single isomer, unassigned) [AA_204_A] | > 1 nM | 0.101 to 1 nM | 0.001 to 0.1 nM |  | 
COC(=O)N[C@H](C(=O)N1CCC[C@H]1c1ncc(-c2ccc(-c3ccc(-c4cnc([C@H]5C6CCC(C6)[C@@H]5C(=O)NC(c5cccnc5)C(C)C)[nH]4)cc3)cc2)[nH]1)C(C)C (single isomer, unassigned) [AA_233_A] | > 1 nM | 0.101 to 1 nM |  | 0.001 to 0.1 nM | 
COC(=O)N[C@H](C(=O)N1CCC[C@H]1c1ncc(-c2ccc(-c3ccc(-c4cnc(C5C6CCC(C6)[C@@H]5C(=O)N[C@H](C)c5cccnc5)[nH]4)cc3)cc2)[nH]1)[C@@H](C)OC (single isomer, unassigned) [AA_253_A] | > 1 nM |  |  | 0.101 to 1 nM | 10 to 100 nM
COC(=O)N[C@H](C(=O)N1CCC[C@H]1c1ncc(-c2ccc(-c3ccc(-c4cnc(C5C6CCC(C6)[C@@H]5C(=O)NC(C)c5cnccn5)[nH]4)cc3)cc2)[nH]1)[C@@H](C)OC (single isomer, unassigned) [AA_281_A] | > 1 nM | 0.101 to 1 nM |  | 0.001 to 0.1 nM | 
COC(=O)NC(C(=O)N1CCCC1c1[nH]c(-c2ccc(-c3ccc(-c4cnc([C@@H]5CCCN5C(=O)[C@@H](NC(=O)OC)C(C)C)[nH]4)cc3)cc2)c2c1CCC2)C1CCOC1 (single isomer, unassigned) [AG_025_A] | > 10 nM |  |  | 0.001 to 0.1 nM | 10 to 100 nM
COC(=O)N[C@H](C(=O)N1CCCC1c1ccc(-c2ccc(-c3ccc(-c4cnc([C@@H]5CCCN5C(=O)[C@@H](NC(=O)OC)[C@@H](C)OC)[nH]4)cc3)cc2)[nH]1)[C@@H](C)OC (single isomer, unassigned) [AG_072_A] | > 1 nM | 0.001 to 0.1 nM |  | 0.001 to 0.1 nM | 
COC(=O)N[C@H](C(=O)N1[C@H](c2ncc(-c3ccc(-c4ccc5cc(-c6cnc(C7CCCC[C@H]7C(=O)N(NC(=O)OC)C(C)C)[nH]6)ccc5c4)cc3)[nH]2)COC1(C)C)C(C)C (stereo partly shown) [AA_072] | > 10 nM |  | 10 to 100 nM |  | 
COC(=O)N[C@H](C(=O)N1CC2(C[C@H]1c1ncc(-c3ccc(-c4ccc5cc(-c6cnc(C7CCCC[C@H]7C(=O)N(NC(=O)OC)C(C)C)[nH]6)ccc5c4)cc3)[nH]1)OCCO2)C(C)C (stereo partly shown) [AA_073] | > 10 nM |  | 1 to 10 nM |  | 
COC(=O)NN(C(=O)[C@H]1CCCCC1c1ncc(-c2ccc(-c3ccc4cc(-c5cnc(C6CCCC[C@H]6C(=O)N(NC(=O)OC)C(C)C)[nH]5)ccc4c3)cc2)[nH]1)C(C)C (stereo partly shown) [AA_074] | > 10 nM |  | 10 to 100 nM |  | 
COC(=O)NN(C(=O)[C@@H]1CCCCC1c1ncc(-c2ccc3cc(-c4ccc(-c5cnc(C6CCCC[C@@H]6C(=O)N(CC(=O)NC6CC6)C(C)C)[nH]5)cc4)ccc3c2)[nH]1)C(C)C (stereo partly shown) [AA_075] | > 10 nM |  | 10 to 100 nM |  | 
COC(=O)NC(C(=O)N1CCCC1c1ncc(-c2ccc3cc(-c4cnc(C5CCCC[C@H]5C(=O)N(NC(=O)OC)C(C)C)[nH]4)ccc3c2)[nH]1)C1CCOC1 (stereo partly shown) [AA_078] | > 10 nM |  | 10 to 100 nM |  | 
COC(=O)N[C@H](C(=O)N1CCC[C@H]1c1ncc(-c2ccc(-c3ccc(-c4cnc([C@@H]5CCCC[C@H]5C(=O)N(NC(=O)OC)C(C)C)[nH]4)cc3)cc2)[nH]1)C(C)C [AA_091_A] | > 10 nM |  | 1 to 10 nM |  | 
COC(=O)N[C@H](C(=O)N1CCC[C@H]1c1ncc(-c2ccc(-c3ccc(-c4cnc([C@H]5CCCC[C@@H]5C(=O)N(NC(=O)OC)C(C)C)[nH]4)cc3)cc2)[nH]1)C(C)C [AA_091_B] | > 10 nM |  | 0.101 to 1 nM |  | 10 to 100 nM
COC(=O)N[C@H](C(=O)N1CCC[C@H]1c1[nH]c(-c2ccc(-c3ccc4cc(-c5cnc(C6CCCC[C@@H]6C(=O)N(NC(=O)OC)C(C)C)[nH]5)ccc4c3)cc2)c2c1CCC2)C(C)C (stereo partly shown) [AA_094] | > 10 nM |  | 10 to 100 nM |  | 
COC(=O)NC(C(=O)C1CCCCC1c1ncc(-c2ccc(-c3ccc(-c4[nH]c([C@@H]5CCCN5C(=O)[C@@H](NC(=O)OC)C(C)C)c5c4CCC5)cc3)cc2)[nH]1)C(C)C (stereo partly shown) [AA_100] | > 10 nM |  | 10 to 100 nM |  | 
COC(=O)N[C@H](C(=O)N1CCC[C@H]1c1ncc(-c2ccc(-c3ccc(-c4cnc(C5CCCC[C@H]5C(=O)N(NC(=O)OC)C(C)C)[nH]4)cn3)cc2)[nH]1)C(C)C (stereo partly shown) [AA_108] | > 10 nM |  | 1 to 10 nM |  | 
COC(=O)NC(C(=O)N1CCC[C@H]1c1ncc(-c2ccc(-c3ccc(-c4cnc(C5CCCC[C@@H]5C(=O)N(NC(=O)OC)C(C)C)[nH]4)cc3)cc2)[nH]1)C1CCOCC1 (stereo partly shown) [AA_109] | > 100 nM |  | 0.101 to 1 nM |  | 10 to 100 nM
COC(=O)N[C@H](C(=O)N1CCC[C@H]1c1ncc(-c2ccc(-c3ccc(-c4cnc(C5CCCC[C@H]5C(=O)NCc5cccnc5)[nH]4)cc3)cc2)[nH]1)C(C)C (stereo partly shown) [AA_113] | > 10 nM |  | 0.101 to 1 nM |  | 1 to 10 nM
COC(=O)N[C@H](C(=O)N1CCC[C@H]1c1ncc(-c2ccc(-c3ccc(-c4cnc(C5CCCC[C@@H]5C(=O)N(NC(=O)OC)C(C)C)[nH]4)cc3F)cc2)[nH]1)C(C)C (stereo partly shown) [AA_117] | > 10 nM |  | 0.101 to 1 nM |  | 10 to 100 nM
COC(=O)N[C@H](C(=O)N1CCC[C@H]1c1ncc(-c2ccc(-c3ccc(-c4cnc(C5CCCC[C@@H]5C(=O)N(NC(=O)OC)C(C)C)[nH]4)c(F)c3)cc2)[nH]1)C(C)C (stereo partly shown) [AA_118] | > 10 nM |  | 1 to 10 nM |  | 
COC(=O)N[C@H](C(=O)N1CCC[C@H]1c1ncc(-c2ccc(-c3ccc(-c4cnc(C5C6CCC(C6)[C@@H]5C(=O)N(NC(=O)OC)C(C)C)[nH]4)cc3)cc2)[nH]1)C(C)C (stereo partly shown) [AA_121_A] | > 10 nM |  | 1 to 10 nM |  | 10 to 100 nM
COC(=O)N[C@H](C(=O)N1CCC[C@H]1c1ncc(-c2ccc(-c3ccc(-c4cnc(C5C6CCC(C6)[C@H]5C(=O)N(NC(=O)OC)C(C)C)[nH]4)cc3)cc2)[nH]1)C(C)C (stereo partly shown) [AA_121_B] | > 10 nM |  |  | 0.001 to 0.1 nM | 1 to 10 nM
COC(=O)NC(C(=O)N1CCC[C@H]1c1ncc(-c2ccc(-c3ccc(-c4cnc(C5CCCC[C@@H]5C(=O)N(NC(=O)OC)C(C)C)[nH]4)cc3)cc2)[nH]1)C1CCOC1 (stereo partly shown) [AA_122] | > 100 nM |  | 0.101 to 1 nM |  | 10 to 100 nM
COC(=O)N[C@H](C(=O)N1CCC[C@H]1c1ncc(-c2ccc(-c3ccc(-c4cnc(C5CCCC[C@@H]5C(=O)N(NC(=O)OC)C(C)C)[nH]4)cc3C(F)(F)F)cc2)[nH]1)C(C)C (stereo partly shown) [AA_127] | > 10 nM |  | 0.101 to 1 nM |  | 10 to 100 nM
COC(=O)N[C@H](C(=O)N1CCC[C@H]1c1ncc(-c2ccc(-c3ccc(-c4cnc(C5CC(F)(F)C[C@H]5C(=O)N(NC(=O)OC)C(C)C)[nH]4)cc3)cc2)[nH]1)C(C)C (stereo partly shown) [AA_138] | > 100 nM |  | 1 to 10 nM |  | 10 to 100 nM
COC(=O)N[C@H](C(=O)N1CCC[C@H]1c1ncc(-c2ccc(-c3ccc(-c4cnc([C@H]5CCCC[C@@H]5C(=O)NCc5cccnc5)[nH]4)cc3)cc2)[nH]1)C(C)C [AA_150_A] | > 10 nM |  | 0.101 to 1 nM |  | 10 to 100 nM
COC(=O)N[C@H](C(=O)N1CCC[C@H]1c1ncc(-c2ccc(-c3ccc(-c4cnc([C@@H]5CCCC[C@H]5C(=O)NCc5cccnc5)[nH]4)cc3)cc2)[nH]1)C(C)C [AA_150_B] | > 10 nM |  | 0.001 to 0.1 nM |  | 0.101 to 1 nM
COC(=O)N[C@H](C(=O)N1CCC[C@H]1c1[nH]c(-c2ccc(-c3ccc(-c4cnc(C5C6CCC(C6)[C@@H]5C(=O)N(NC(=O)OC)C(C)C)[nH]4)cc3)cc2)c2c1CCC2)C(C)C (stereo partly shown) [AA_155] | > 100 nM |  | 1 to 10 nM |  | 10 to 100 nM
COC(=O)NC(C(=O)N1CCCC1c1[nH]c(-c2ccc(-c3ccc(-c4cnc(C5CCCC[C@@H]5C(=O)N(NC(=O)OC)C(C)C)[nH]4)cc3)cc2)c2c1CCC2)C1CCOCC1 (stereo partly shown) [AL_003] | > 10 nM |  | 10 to 100 nM |  | 

Reference: patent publication US10160771B2, “Hepatitis C virus inhibitors and uses thereof in preparation of drugs” (priority 2014, dated 2018)
